Laboratory results reported in patent US9725490B2, “ERAP1-derived peptide and use thereof” (TOKUSHIMA UNIVERSITY, priority 2011, dated 2017).

Tested on: KPL-3C tumor
Experiment: Inhibition of tumor proliferation in vivo, KPL-3C orthotopic transplant
Set-up: species or system BALB/c nude mouse
Details: for Ser39 phosphorylation of PHB2/REA in the tumor: 14 mg/kg; for antitumor effect (tumor volume): E2 6 μg/day, 2 weeks
Experimental: FIG. 11-1 is a diagram illustrating that the ERAP1-peptide inhibits tumor proliferation in a mouse orthotopically transplanted with human breast cancer. (A) and (B) show the influence of the ERAP1-peptide on the tumor volume. […] were subcutaneously transplanted into the breast fat body of as BALB/c nude mouse. The treatment test (5 individuals/group) was initiated (day 0) when the volume of the tumor in the absence E2 reached about 50-80 mm^3. The ERAP1-peptide (14, 35 and 70 mg/kg), the scramble peptide (14, 35 and 70 mg/kg) or tamoxifen (4 mg/kg) was administered every day by intraperitoneal injection to a cancerous mouse orthotopically transplanted with KPL-3C tumor. At the same time, E2 (6 μg/day) was administered subcutaneously every day.
FIG. 11-3 is a diagram illustrating that the ERAP1-peptide inhibits tumor proliferation in a mouse orthotopically transplanted with human breast cancer. […] The mouse was euthanatized on day 14, and the tumor was removed, and the expression level of the downstream genes in each tumor was obtained by quantitative RT-PCR.
FIG. 11-4 is a diagram illustrating that the ERAP1-peptide inhibits tumor proliferation in a mouse orthotopically transplanted with human breast cancer.
FIG. 27 is a diagram illustrating the inhibition effect of the ERAP1-peptide on tumor proliferation in a mouse orthotopically transplanted with human breast cancer. […] KPL-3 cells were subcutaneously transplanted into the breast fat body of a BALB/c nude mouse. The treatment test (5 individuals/group) was initiated (day 0) when the volume of the tumor reached about 50-80 mm^3 in the absence of E2. To a cancerous mouse orthotopically transplanted with KPL-3C tumor, the ERAP1-peptide (Peptide: 14 mg/kg) or the ERAP1-scramble peptide (scrPeptide: 14 mg/kg) was administered every day by intraperitoneal injection. At the same time, E2 (6 μg/day) was administered subcutaneously every day. On day 14, the mouse was euthanatized, and the tumor was removed, and phosphorylation of PHB2/REA (S39) in each tumor was evaluated with immunoblotting analysis. […] The tamoxifen-resistant MCF7-cells (Tam-R MCF-7) were subcutaneously transplanted into the breast fat body of a BALB/c nude mouse, and the treatment test (5 individuals/group) was initiated (day 0) when the volume of the tumor reached about 50-80 mm^3 in the presence of tamoxifen (37 ng/day, 1.85 μg/kg). To a cancerous mouse orthotopically transplanted with Tam-R MCF-7 tumor, the ERAP1-peptide (Peptide: 3.5, 7 and 14 mg/kg) or the ERAP1-scramble peptide (scrPeptide: 14 mg/kg) was administered every day by intraperitoneal injection. At the same time, E2 (6 μg/day) was administered subcutaneously every day: Tam-R MCF-7 heterotransplanted tumor at day 21 and the mean tumor volume±SE (n=5) are shown. *P<0.05, **P<0.01, ***P<0.001.
KPL-3C cell suspension (1×10^7 cells/mouse) was mixed with the same amount of Matrigel (BD). This mixture was injected into the breast fat body of 6 weeks old female BALB/c nude mouse (CLEA Japan, Tokyo, Japan). The mouse was kept in a sterile isolated facility with a cycle of 12 hour light period/12 hour dark period, and freely fed with rodent food and water. The tumor was grown over 1 week until the size thereof reached 50 to 80 mm^3 (calculated as ½×(width×length^2)). Then, the mice were randomly divided into nine treatment groups (5 individuals/group): no treatment group, 6 μg/day E2 treatment group, E2+0.28 mg/day ERAP1-peptide treatment group, E2+0.7 mg/day ERAP1-peptide treatment group, E2+1.4 mg/day ERAP1-peptide treatment group, E2+0.28 mg/day of the scramble peptide treatment group, E2+0.7 mg/day of the scramble peptide treatment group, E2+1.4 mg/day of the scramble peptide treatment group, and E2+83 μg/day tamoxifen treatment group. The mouse was treated every day with 6 μg/day E2 solution (100 μl 2.2×10^−4 M) on the neck skin. […]

[1] = 14, 35, 70 mg/kg intraperitoneal every day

Q: How did the “Ser39 phosphorylation of PHB2/REA in the tumor” value (tumor removed day 14) turn out when `CSCC[C@H](NC(=O)[C@H](CCC(N)=O)NC(=O)[C@H](CCCNC(=N)N)NC(=O)[C@H](CCCNC(=N)N)NC(=O)[C@H](CCCNC(=N)N)NC(=O)[C@H](CCCNC(=N)N)NC(=O)[C@H](CCCNC(=N)N)NC(=O)[C@H](CCCNC(=N)N)NC(=O)[C@H](CCCNC(=N)N)NC(=O)[C@H](CCCNC(=N)N)NC(=O)[C@H](CCCNC(=N)N)NC(=O)[C@H](CCCNC(=N)N)NC(=O)[C@@H](N)CCCNC(=N)N)C(=O)N[C@@H](CC(C)C)C(=O)N[C@@H](CO)C(=O)N[C@@H](CC(=O)O)C(=O)N[C@@H](CC(C)C)C(=O)N[C@H](C(=O)N[C@@H](CC(C)C)C(=O)N[C@@H](CCC(N)=O)C(=O)N[C@@H](CC(C)C)C(=O)N[C@@H](CCCNC(=N)N)C(=O)N[C@@H](CCC(N)=O)C(=O)N[C@@H](CCCNC(=N)N)C(=O)O)[C@@H](C)O` [ERAP1-peptide] was run?
A: phosphorylation of Ser39 of PHB21/REA was confirmed

Q: What about the “change of the body weight” value [1] of the same compound?
A: change of the body weight was not recognized

Q: What about the “antitumor effect (tumor volume)” value [1] of the same compound?
A: the antitumor effect was recognized

Q: What about the “expressions of ERα target genes PS2, cyclin D1, C-Myc, SP-1 in the tumor” value (tumor removed day 14) of the same compound?
A: completely suppressed

Q: And the “phosphorylations of Akt and MAPK in the tumor” value (tumor removed day 14)?
A: suppression for the phosphorylations of the non-genomic activation signal routes, i.e., Akt and MAPK, was also confirmed

Q: With “DRQLQLSTLQRML (SEQ ID NO: 28) (ERAP1-scramble peptide) [reference compound]” as the compound, how does the “Ser39 phosphorylation of PHB2/REA in the tumor” value (tumor removed day 14) read?
A: the phosphorylation of PHB2/REA was not recognized

Q: What about the “antitumor effect (tumor volume)” value [1] of the same compound?
A: significant tumor suppression effect was not recognized in any of the doses

Q: And the “expressions of ERα target genes PS2, cyclin D1, C-Myc, SP-1 in the tumor” value (tumor removed day 14)?
A: suppression for the expression was not recognized
